In patent US11247994B2, “6-dithio-substituted-2′-deoxyguanosine compound, preparation method thereof and use thereof” (ZHEJIANG UNIVERSITY, priority 2018, dated 2022):

Assays:
TrxR/Trx-1 = biological target: T1, TrxR/Trx-1 (Homo sapiens, UniProt P10599); assay: Ellman test, inhibition of TrxR/Trx-1 activity; type: biochemical; conditions: read-out: TrxR/Trx-1 IC50
T1 sequence (P10599 2-105 limits assumed): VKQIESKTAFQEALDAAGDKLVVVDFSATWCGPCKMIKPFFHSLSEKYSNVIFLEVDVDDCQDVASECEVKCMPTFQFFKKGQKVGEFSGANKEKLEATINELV
Source text: Ellman Test—Inhibitory Effect of 6-dithio-substituted-2′-deoxyguanosine Derivative Analogues on TrxR/Trx-1 Activity
A TrxR/TR experiment based on the Ellman reaction was used to determine the inhibitory activity of candidate compounds. Ellman reaction is that 5,5′-dithiobis (2-nitrobenzoic acid) (DTNB) reacts with sulfhydryl (—SH) to form a yellow substance with absorption at 412 nm. The increase of absorption can be equivalent to the decrease of NADPH mediated by TrxR, thus further judging the activity of TrxR/Trx-1. All experiments were carried out on 96-well plates. Before the start of the enzyme reaction, five groups of corresponding test compound stock solutions with different concentrations were prepared. In the TrxR/Trx-1 reaction, a total volume per well was 60 μL, including 100 mM HEPES, 5 mM EDTA (HE buffer, pH 7.5), 1 mM NADPH, 1.0 μM TrxR, 0.8 μM Trx-1, 2.5 mg/mL bovine insulin and the required concentration of compounds to be tested. No compound to be tested was added to the control group. No compound to be tested, TrxR and Trx-1 were added in the blank group. The plate was shaken on an oscillator for 30 seconds to fully mix the reactants. After incubation at 37° C. for 30 min, 100 μL of the prepared mixture containing 6 M guanidine hydrochloride, 50 mm Tris and 10 mm DTNB was added to terminate the reaction. After 15 minutes of incubation, the absorbance was measured at 412 nm. Finally, TrxR/Trx-1 activity %=(Atest−Akb)/(Acontrol−Akb), that is, the relative percentage of TrxR/Trx-1 activity was the activity inhibited by adding 2′-deoxyguanosine derivatives relative to the activity without 2′-deoxyguanosine derivatives. The data were fitted into a concentration response curve with a variable slope, and the IC50 value was calculated from the curve.

[1] = system: human colon cancer cells HT29; assay: MTT assay, tumor cell growth inhibition, HT29; type: cell-based; conditions: HT-29, 48 hours
Source text: (§1) MTT Assay—Inhibitory Effect of 6-dithio-substituted-2′-deoxyguanosine Derivatives on Tumor Cell Growth
(§2) We measured the tumor cell growth inhibitory activity of candidate compounds by MTT assay. Human tumor cells in logarithmic growth phase were digested with 0.25% pancreatin for a certain time, centrifuged, re-suspended and counted with a blood cell counting plate to prepare a cell suspension, and the cell suspension was adjusted to 1.0×10^4-1×10^5 cells/mL. The cell suspension was inoculated into a 96-well culture plate, 100 μL per well, and cultured in an incubator with saturated humidity, 37° C. and 5% CO2 for 24 hours until the cells completely adhered to the wall. The test compound was diluted to the required concentration with a complete medium, the complete medium of the 96-well culture plate inoculated with human tumor cells was sucked out, a medicament-containing medium was added, 100 μL per well, the final concentration of DMSO was less than 0.1%, and the culture plate was put in an incubator for 48 hours. 10 μl of MTT was added to each well of the 96-well plate, and the culture was continued for 4 h. The culture was stopped and the culture solution in the well was carefully sucked off. 150 μL DMSO was added to each well, and shaken at a low speed for 10 min on a shaking table, so that the crystal was fully dissolved. The absorbance of each well was measured at OD 570 nm of an enzyme-linked immunosorbent assay instrument. At the same time, zeroing wells (the culture medium, MTT, dimethyl sulfoxide) and control wells (cells, a drug dissolution medium with the same concentration, a culture solution, MTT, dimethyl sulfoxide) were set up, and the cell growth inhibitory activity was calculated with the corresponding solvents as the control. 3-6 multiple wells in each group were set up with repetition of several times. Cell viability of control=(Adrug group−Azeroing well)/(Acontrol well−Azeroing well)*100%. Drawing was drawn, the data were fitted into a concentration response curve with a variable slope, and IC50 value was calculated from the curve.

[2] = system: human melanoma cells A375; assay: MTT assay, tumor cell growth inhibition, A375; type: cell-based; conditions: A-375, 48 hours
Source text: as §1, §2

[3] = system: human non-small cell lung cancer A549; assay: MTT assay, tumor cell growth inhibition, A549; type: cell-based; conditions: 48 hours
Source text: as §1, §2

[4] = A375 tumor-bearing mouse model, body weight, toxicity and blood biochemical indexes; type: in vivo; conditions: compound D 10 mg/kg
Description: 2) Human Melanoma Cell A375 Tumor-Bearing Mouse Model
We further studied the inhibitory effect of the compound D on human malignant melanoma by using A375 tumor-bearing mouse model. The method was basically the same as above. Dacarbazine (DTIC) is the first-line drug for melanoma. The designed administration groups were: compound D 10 mg/kg group; 6-thio-dG+PX12 combined drug group (the dose is equivalent to twice the molar amount of the compound D); DTIC 20.4 mg/kg group (the dose is equivalent to 4 times the molar amount of the compound D) and blank solvent group.

[5] = system: human colon cancer cells HCT116; assay: MTT assay, tumor cell growth inhibition, HCT116; type: cell-based; conditions: HCT-116, 48 hours
Source text: as §1, §2

NCM460 = assay: MTT assay, cell growth inhibition, NCM460; type: cell-based; conditions: Homo sapiens, 48 hours, read-out: Tumor cell growth inhibition IC50, NCM460
Source text: as §1, §2

[6] = system: human breast cancer cells Bcap37; assay: MTT assay, tumor cell growth inhibition, Bcap37; type: cell-based; conditions: 48 hours
Source text: as §1, §2

With CC(C)SSc1nc(N)nc2c1ncn2[C@H]1C[C@H](O)[C@@H](CO)O1 [D, 6-(isopropyldithio)-2′-deoxyguanosine] the IC50 (TrxR/Trx-1) was 4.26 µM, the IC50 [1] was 4.24 µM and the IC50 [2] was 0.37 µM. The IC50 [3] was 31.1 µM, the Body weight [4] was “after 13 days of administration, the body weight was significantly higher than that of DITC group, 6-thio-dG and PX-12 combination group” and the “Toxicity compared with 6-thio-dG and PX-12 combination” value ([4]; combination at twice the molar amount) was “lower toxicity than the combined drug group”. For the same molecule, the IC50 [5] was 1.09 µM, the IC50 (NCM460) was greater than 1000 µM and the IC50 [6] was 22.8 µM.
